Where two headings read alike, the source gives them in different places.
Target: T1, IP receptor (Homo sapiens, UniProt P43119)
T1 construct: expressed in transfected cells; host or cells: CHO cells stably expressing the IP receptor (CHO-IP)
Assay: cAMP accumulation in CHO cells stably expressing the IP receptor (CHO-IP), PerkinElmer AlphaScreen assay
Type: cell-based
Experimental: Activity of compounds at the IP receptor (IP receptor) is assessed by measuring cAMP accumulation in CHO cells stably expressing the IP receptor (CHO-IP) using the PerkinElmer AlphaScreen assay. This technology measures the endogenous production of cAMP, in a non-radioactive luminescence proximity homogenous assay. A biological reaction occurs between streptavidin coated donor beads, biotinylated cAMP and anti-cAMP acceptor beads, bringing the donor and acceptor beads close enough together so that upon excitation a fluorescence signal is produced. On production of endogenous cAMP, competition between the biotinylated cAMP and cellular-derived cAMP causes a reduction in the fluorescent signal. The reduction in signal is proportional to the amount of cAMP being produced, thus it is possible to quantify the amount of cAMP being produced on stimulation with agonist.
Test and reference compounds are prepared at 100×[final] in 100% DMSO, and diluted 1:3 using a Biomek Fx (Beckman Coulter). This is followed by an intermediate dilution to give 5×[final] in assay buffer (HBSS containing 5 mM HEPES, 0.1% (w/v) BSA). 5 μL of 5×[final] test compounds, reference compounds and buffer/DMSO control are then transferred to a 384-well white OptiPlate, containing 20 μL CHO—IP cell suspension (15,000 cells/well, prepared from frozen), and plate is incubated at room temperature for 1 hour. A cAMP standard curve is constructed for each experiment (concentration range of 10000 nM to 0.001 nM, in assay buffer) and 25 μL of each concentration added to the last two columns of the assay plate. The incubation is terminated by the addition of lysis buffer (dH2O; 0.3% (v v^−1) Tween-20) containing 20 units mL^−1 streptavidin coated donor beads and biotinylated cAMP (pre-incubated for 30 minutes) and 20 units mL^−1 anti-cAMP acceptor beads, which are added to the lysis buffer just before addition to the assay plate. The assay plate is then incubated at room temperature in the dark, for 60 minutes with gentle shaking, and read on the Envision plate reader (Perkin Elmer).
The raw data of the reference compounds, test compounds and controls are converted into cAMP concentrations, using the cAMP standard curve, in GraphPadPrism (GraphPad Software Inc). EC50 as well as maximal values of the agonist curves are determined using a 4-parameter logistic equation. The % maximum response values of all test compounds are determined using the top of the treprostinil concentration-response curve.

[1] = 1 hour at room temperature, Table 1, read-out: EC50
[2] = read-out: EC50 values in the data measurements described above

T1 sequence (P43119 whole entry): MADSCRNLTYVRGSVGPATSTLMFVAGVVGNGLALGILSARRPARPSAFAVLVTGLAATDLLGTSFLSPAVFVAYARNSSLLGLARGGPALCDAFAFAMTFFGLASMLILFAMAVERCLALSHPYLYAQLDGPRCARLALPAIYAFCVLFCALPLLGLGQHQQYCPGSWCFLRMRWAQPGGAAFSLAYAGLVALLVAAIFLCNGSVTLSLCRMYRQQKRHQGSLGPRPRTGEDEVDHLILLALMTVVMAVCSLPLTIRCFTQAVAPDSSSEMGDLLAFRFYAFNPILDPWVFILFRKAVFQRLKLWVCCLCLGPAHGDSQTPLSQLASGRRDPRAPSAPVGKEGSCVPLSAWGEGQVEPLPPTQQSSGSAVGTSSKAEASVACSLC

Row | Structure (SMILES) | EC50 [1] | EC50 [2]
1 | Cc1ccc(-c2nc3c(nc2-c2ccc(C)cc2)N(CCCC(O)C(O)CC(=O)O)CCC3)cc1 (racemic) [Example 15.1, rac-7-(2,3-Dip-tolyl-7,8-dihydropyrido[2,3-b]pyrazin-5(6H)-yl)-3,4-dihydroxyheptanoic acid] | 57 nM | –
2 | CN1c2nc(-c3ccccc3)c(-c3ccccc3)cc2CCC1CCCCCC(=O)O (single isomer, unassigned) [Example 2.1, 6-(1-methyl-6,7-diphenyl-1,2,3,4-tetrahydro-1,8-naphthyridin-2-yl)hexanoic acid] | 30 nM | –
3 | CN1c2nc(-c3ccccc3)c(-c3ccccc3)cc2CCC1CCCCCC(=O)O (single isomer, unassigned) [Example 2.2, 6-(1-methyl-6,7-diphenyl-1,2,3,4-tetrahydro-1,8-naphthyridin-2-yl)hexanoic acid] | 100 nM | –
4 | CC1CCc2cc(-c3ccccc3)c(-c3ccccc3)nc2N1CCCCCCC(=O)O (single isomer, unassigned) [Example 3.1, 7-(2-methyl-6,7-diphenyl-3,4-dihydro-1,8-naphthyridin-1(2H)-yl)heptanoic acid] | 36 nM | –
5 | CC1CCc2cc(-c3ccccc3)c(-c3ccccc3)nc2N1CCCCCCC(=O)O (single isomer, unassigned) [Example 3.2, 7-(2-methyl-6,7-diphenyl-3,4-dihydro-1,8-naphthyridin-1(2H)-yl)heptanoic acid] | 245 nM | –
6 | Cc1ccc(-c2nc3c(nc2-c2ccc(C)cc2)N(CCCCCCC(=O)O)C(C)CC3)cc1 (single isomer, unassigned) [Example 4.14, 7-(6-methyl-2,3-dip-tolyl-7,8-dihydropyrido[2,3-b]pyrazin-5(6H)-yl)heptanoic acid] | 0.13 nM | –
7 | Cc1ccc(-c2nc3c(nc2-c2ccc(C)cc2)N(CCCCCCC(=O)O)C(C)CC3)cc1 (single isomer, unassigned) [Example 4.15, 7-(6-methyl-2,3-dip-tolyl-7,8-dihydropyrido[2,3-b]pyrazin-5(6H)-yl)heptanoic acid] | 0.48 nM | –
8 | Cc1ccc(-c2nc3c(nc2-c2ccc(C)cc2)N(CCCCCCC(=O)O)CC(O)C3O)cc1 (single isomer, unassigned) [Example 8.2a, 7-(7,8-dihydroxy-2,3-dip-tolyl-7,8-dihydropyrido[2,3-b]pyrazin-5(6H)-yl)heptanoic acid] | 0.49 nM | –
9 | Cc1ccc(-c2nc3c(nc2-c2ccc(C)cc2)N(CCCCCCC(=O)O)CC(O)C3O)cc1 (single isomer, unassigned) [Example 8.2b, 7-(7,8-dihydroxy-2,3-dip-tolyl-7,8-dihydropyrido[2,3-b]pyrazin-5(6H)-yl)heptanoic acid] | 0.89 nM | –
10 | Cc1ccc(-c2nc3c(nc2-c2ccc(C)cc2)N(CCCCCCC(=O)O)CCC3O)cc1 (single isomer, unassigned) [Example 9.8, rac-7-(8-Hydroxy-2,3-dip-tolyl-7,8-dihydropyrido[2,3-b]pyrazin-5(6H)-yl)heptanoic acid] | 0.296 nM | –
11 | Cc1ccc(-c2nc3c(nc2-c2ccc(C)cc2)N(CCCCCCC(=O)O)CCC3O)cc1 (single isomer, unassigned) [Example 9.8a, 7-(8-Hydroxy-2,3-dip-tolyl-7,8-dihydropyrido[2,3-b]pyrazin-5(6H)-yl)heptanoic acid] | 0.4 nM | –
12 | Cc1ccc(-c2nc3c(nc2-c2ccc(C)cc2)N(CCCCCCC(=O)O)CCC3O)cc1 (single isomer, unassigned) [Example 9.8b, 7-(8-Hydroxy-2,3-dip-tolyl-7,8-dihydropyrido[2,3-b]pyrazin-5(6H)-yl)heptanoic acid] | 1.8 nM | –
13 | Cc1ccc(-c2nc3c(nc2-c2ccc(C)cc2)N(CCCCCCC(=O)O)CC(O)C3)cc1 (single isomer, unassigned) [Example 14.1, 7-(7-hydroxy-2,3-dip-tolyl-7,8-dihydropyrido[2,3-b]pyrazin-5(6H)-yl)heptanoic acid] | 0.0718 nM | –
14 | Cc1ccc(-c2nc3c(nc2-c2ccc(C)cc2)N(CCCCCCC(=O)O)CC(O)C3)cc1 (single isomer, unassigned) [Example 14.2, 7-(7-hydroxy-2,3-dip-tolyl-7,8-dihydropyrido[2,3-b]pyrazin-5(6H)-yl)heptanoic acid] | 0.0627 nM | –
15 | COC1Cc2nc(-c3ccc(C)cc3)c(-c3ccc(C)cc3)nc2N(CCCCCCC(=O)O)C1 (single isomer, unassigned) [Example 17.1a, 7-(7-methoxy-2,3-dip-tolyl-7,8-dihydropyrido[2,3-b]pyrazin-5(6H)-yl)heptanoic acid] | 3 nM | –
16 | COC1Cc2nc(-c3ccc(C)cc3)c(-c3ccc(C)cc3)nc2N(CCCCCCC(=O)O)C1 (single isomer, unassigned) [Example 17.1b, 7-(7-methoxy-2,3-dip-tolyl-7,8-dihydropyrido[2,3-b]pyrazin-5(6H)-yl)heptanoic acid] | 4.8 nM | –
17 | O=C(O)CCCCN1CCCc2cc(-c3ccccc3)c(-c3ccccc3)nc21 [5-(6,7-diphenyl-3,4-dihydro-1,8-naphthyridin-1(2H)-yl)pentanoic acid] | – | > 10000 nM
18 | O=C(O)CCCCCCN1CCCc2cc(-c3ccccc3)c(-c3ccccc3)nc21 [Example 1.1, 7-(6,7-Diphenyl-3,4-dihydro-1,8-naphthyridin-1(2H)-yl)heptanoic acid] | 5.5 nM | –
19 | O=C(O)CCCCCCN1CCCc2nc(-c3ccccc3)c(-c3ccccc3)nc21 [Example 4.1, 7-(2,3-diphenyl-7,8-dihydropyrido[3,2-b]pyrazin-5(6H)-yl)heptanoic acid] | 1.2 nM | –
20 | Cc1ccc(-c2nc3c(nc2-c2ccc(C)cc2)N(CCCCCCC(=O)O)CCC3)cc1 [Example 4.3, 7-(2,3-Dip-tolyl-7,8-dihydropyrido[2,3-b]pyrazin-5(6H)-yl)heptanoic acid] | 0.11 nM | –
21 | Cc1ccc(-c2nc3c(nc2-c2ccccc2)CCCN3CCCCCCC(=O)O)cc1 [Example 5.2, 7-(2-Phenyl-3-p-tolyl-7,8-dihydropyrido[2,3-b]pyrazin-5(6H)-yl)heptanoic acid] | 0.08 nM | –
22 | Cc1ccc(-c2nc3c(nc2-c2ccc(C)c(F)c2)N(CCCCCCC(=O)O)CCC3)cc1F [Example 6.1, 7-(2,3-bis(3-Fluoro-4-methylphenyl)-7,8-dihydropyrido[2,3-b]pyrazin-5(6H)-yl)heptanoic acid] | 0.32 nM | –
23 | O=C(O)CCCCCCN1CC[C@@H](O)c2nc(-c3ccccc3)c(-c3ccccc3)nc21 [Example 9.1, (R)-7-(8-Hydroxy-2,3-diphenyl-7,8-dihydropyrido[2,3-b]pyrazin-5(6H)-yl)heptanoic acid] | 5.6 nM | –
24 | O=C(O)CCCCCCN1CC[C@H](O)c2nc(-c3ccccc3)c(-c3ccccc3)nc21 [Example 9.2, (S)-7-(8-Hydroxy-2,3-diphenyl-7,8-dihydropyrido[2,3-b]pyrazin-5(6H)-yl)heptanoic acid] | 8.6 nM | –
25 | Cc1ccc(-c2nc3c(nc2-c2ccc(C)cc2)N(CCCCCCC(=O)O)C(=O)CC3)cc1 [Example 12.1, 7-(6-oxo-2,3-dip-tolyl-7,8-dihydropyrido[2,3-b]pyrazin-5(6H)-yl)heptanoic acid] | 0.0754 nM | –
26 | Cc1ccc(-c2nc3c(nc2-c2ccc(C)cc2)N(CCCCCCC(=O)O)C(=O)C(O)C3)cc1 (stereo not shown) [Example 16.1, 7-(7-Hydroxy-6-oxo-2,3-dip-tolyl-7,8-dihydropyrido[2,3-b]pyrazin-5(6H)-yl)heptanoic acid] | 0.74 nM | –
27 | CCCc1ccc(-c2nc3c(nc2-c2ccc(CCC)cc2)N(CCCCCC(=O)OCC)CCC3)cc1 [ethyl 6-(2,3-bis(4-propylphenyl)-7,8-dihydropyrido[2,3-b]pyrazin-5(6H)-yl)hexanoate] | – | > 10000 nM
28 | CCOC(=O)CCCCCCN1CCCc2nc(-c3cccc(C)c3)c(-c3ccc(C)cc3)nc21 [ethyl 7-(2-(m-tolyl)-3-(p-tolyl)-7,8-dihydropyrido[2,3-b]pyrazin-5(6H)-yl)heptanoate] | – | > 10000 nM

— patent publication US9132127B2, “Substituted pyrido[2,3-B]pyrazines as IP receptor agonists” (Novartis AG, priority 2010, dated 2015)
